Several values for one entry are separate records, joined by “and”; a condition that tells them apart may be missing. Equal entries are not always repeated. Toxic doses and inconclusive results are not listed. Cut-off read from the data, not from the text of the source: active = T/C of 150% or more; inactive = T/C below 125%.
System: L1210 leukemia ip in BDF1 mice, survival T/C
Assay: NCI In Vivo Anticancer Drug Screen. Data for tumor model L1210 Leukemia (intraperitoneal) in B6D2F1 (BDF1) mice
Conditions: endpoint: mean survival time, higher = longer survival
Summary of the method: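 Antitumor effect is assessed in tumor-bearing animals. Survival in the compound arm is compared with a vehicle-dosed control arm and expressed as their quotient.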

[1] = dose: 100.0 mg/kg/injection, schedule: Q01DX001 (ip), vehicle: carboxymethylcellulose (CMC)
[2] = dose: 200.0 mg/kg/injection, schedule: Q01DX001 (ip), vehicle: carboxymethylcellulose (CMC)
[3] = dose: 400.0 mg/kg/injection, schedule: Q01DX001 (ip), vehicle: carboxymethylcellulose (CMC)
[4] = dose: 50.0 mg/kg/injection, schedule: Q01DX009 (ip), vehicle: saline
[5] = dose: 100.0 mg/kg/injection, schedule: Q04DX003 (ip), vehicle: saline with Tween-80
[6] = dose: 50.0 mg/kg/injection, schedule: Q01DX001 (ip), vehicle: carboxymethylcellulose (CMC)
[7] = dose: 200.0 mg/kg/injection, schedule: Q04DX003 (ip), vehicle: saline with Tween-80
[8] = dose: 100.0 mg/kg/injection, schedule: Q04DX003 (ip), vehicle: saline
[9] = dose: 200.0 mg/kg/injection, schedule: Q04DX003 (ip), vehicle: saline
[10] = dose: 100.0 mg/kg/injection, schedule: Q01DX009 (ip), vehicle: Klucel (hydroxypropylcellulose) (HPC)
[11] = dose: 200.0 mg/kg/injection, schedule: Q01DX009 (ip), vehicle: Klucel (hydroxypropylcellulose) (HPC)
[12] = dose: 400.0 mg/kg/injection, schedule: Q01DX009 (ip), vehicle: Klucel (hydroxypropylcellulose) (HPC)
[13] = dose: 50.0 mg/kg/injection, schedule: Q04DX003 (ip), vehicle: saline with Tween-80
[14] = dose: 50.0 mg/kg/injection, schedule: Q01DX009 (ip), vehicle: saline with Tween-80
[15] = dose: 100.0 mg/kg/injection, schedule: Q01DX009 (ip), vehicle: saline with Tween-80
[16] = dose: 400.0 mg/kg/injection, schedule: Q04DX003 (ip), vehicle: saline with Tween-80
[17] = dose: 100.0 mg/kg/injection, schedule: Q04DX002 (ip), vehicle: Klucel (hydroxypropylcellulose) (HPC)
[18] = dose: 200.0 mg/kg/injection, schedule: Q04DX002 (ip), vehicle: Klucel (hydroxypropylcellulose) (HPC)
[19] = dose: 400.0 mg/kg/injection, schedule: Q04DX002 (ip), vehicle: Klucel (hydroxypropylcellulose) (HPC)
[20] = dose: 200.0 mg/kg/injection, schedule: Q01DX009 (ip), vehicle: saline with Tween-80

Measured: T/C

O=C(Nc1ccc(Oc2ccc(NC(=O)Nc3cccc(F)c3)cc2)cc1)Nc1cccc(F)c1
inactive: dose: 25.0 mg/kg/injection, schedule: Q01DX009 (ip), vehicle: carboxymethylcellulose (CMC) 89 % of control and 90 % of control | dose: 50.0 mg/kg/injection, schedule: Q01DX009 (ip), vehicle: carboxymethylcellulose (CMC) 86 % of control and 87 % of control | [1] 93 % of control and 94 % of control | dose: 100.0 mg/kg/injection, schedule: Q01DX009 (ip), vehicle: carboxymethylcellulose (CMC) 100 % of control and 106 % of control and 86 % of control | dose: 100.0 mg/kg/injection, schedule: Q04DX002 (ip), vehicle: carboxymethylcellulose (CMC) 97 % of control and 99 % of control | dose: 100.0 mg/kg/injection, schedule: Q04DX003 (ip), vehicle: carboxymethylcellulose (CMC) 94 % of control and 105 % of control | [2] 96 % of control and 105 % of control | dose: 200.0 mg/kg/injection, schedule: Q01DX009 (ip), vehicle: carboxymethylcellulose (CMC) 99 % of control | dose: 200.0 mg/kg/injection, schedule: Q04DX002 (ip), vehicle: carboxymethylcellulose (CMC) 95 % of control and 108 % of control | dose: 200.0 mg/kg/injection, schedule: Q04DX003 (ip), vehicle: carboxymethylcellulose (CMC) 94 % of control and 92 % of control | [3] 96 % of control and 91 % of control | dose: 400.0 mg/kg/injection, schedule: Q01DX009 (ip), vehicle: carboxymethylcellulose (CMC) 93 % of control | dose: 400.0 mg/kg/injection, schedule: Q04DX002 (ip), vehicle: carboxymethylcellulose (CMC) 95 % of control and 89 % of control | dose: 400.0 mg/kg/injection, schedule: Q04DX003 (ip), vehicle: carboxymethylcellulose (CMC) 91 % of control and 92 % of control

CCCC(C=NCC(CCC)(CCN(C)C)c1cccc2ccccc12)(CCN(C)C)c1cccc2ccccc12 (stereo not given)
inactive: dose: 6.25 mg/kg/injection, schedule: Q04DX002 (ip), vehicle: Klucel (hydroxypropylcellulose) (HPC) 88 % of control | dose: 12.5 mg/kg/injection, schedule: Q04DX002 (ip), vehicle: Klucel (hydroxypropylcellulose) (HPC) 101 % of control | dose: 25.0 mg/kg/injection, schedule: Q04DX002 (ip), vehicle: Klucel (hydroxypropylcellulose) (HPC) 104 % of control

ClCCN(CCCl)c1ccc(-c2csc(COc3ccccc3)n2)cc1
inactive: [1] 102 % of control | [2] 96 % of control | [3] 91 % of control

C[N+](C)(C)C1=CC=CC=C1.Br[Br-]Br
inactive: dose: 12.5 mg/kg/injection, schedule: Q01DX009 (ip), vehicle: other 98 % of control | dose: 12.5 mg/kg/injection, schedule: Q04DX003 (ip), vehicle: Klucel (hydroxypropylcellulose) (HPC) 102 % of control | dose: 25.0 mg/kg/injection, schedule: Q01DX009 (ip), vehicle: other 98 % of control | dose: 25.0 mg/kg/injection, schedule: Q01DX009 (ip), vehicle: saline 104 % of control | dose: 25.0 mg/kg/injection, schedule: Q04DX003 (ip), vehicle: Klucel (hydroxypropylcellulose) (HPC) 102 % of control | dose: 50.0 mg/kg/injection, schedule: Q01DX009 (ip), vehicle: other 95 % of control | [4] 105 % of control | dose: 50.0 mg/kg/injection, schedule: Q04DX003 (ip), vehicle: Klucel (hydroxypropylcellulose) (HPC) 101 % of control | dose: 100.0 mg/kg/injection, schedule: Q01DX001 (ip), vehicle: Klucel (hydroxypropylcellulose) (HPC) 101 % of control | dose: 100.0 mg/kg/injection, schedule: Q04DX003 (ip), vehicle: Klucel (hydroxypropylcellulose) (HPC) 104 % of control

O=c1[nH]c(=O)n(O)c2nc[nH]c12
inactive: [5] 92 % of control

ClC1=C(Cl)C2(Cl)C3C4C=CC(C4)C3N1C2(Cl)Cl (stereo not given)
inactive: dose: 50.0 mg/kg/injection, schedule: Q01DX001 (ip), vehicle: saline with Tween-80 98 % of control | dose: 100.0 mg/kg/injection, schedule: Q01DX001 (ip), vehicle: saline with Tween-80 95 % of control

CCOC(=O)c1ccc(N=Cc2cnc3nc(NC(C)=O)[nH]c(=O)c3n2)cc1
inactive: dose: 100.0 mg/kg/injection, schedule: Q01DX001 (ip), vehicle: other 103 % of control | dose: 200.0 mg/kg/injection, schedule: Q01DX001 (ip), vehicle: other 96 % of control | dose: 400.0 mg/kg/injection, schedule: Q01DX001 (ip), vehicle: other 103 % of control

COc1ccc(/C(C#N)=C2C=C/C(=N/O)c3ccccc3\2)cc1
inactive: [6] 92 % of control | [1] 92 % of control | [2] 87 % of control | [3] 89 % of control

COC1OC2COC(c3ccccc3)OC2C(O)C1OS(=O)(=O)c1ccc(C)cc1 (stereo not given)
inactive: [5] 87 % of control | [7] 87 % of control

O=[N+]([O-])c1cccc(-c2nn[nH]n2)c1
inactive: [8] 94 % of control | [9] 94 % of control | dose: 400.0 mg/kg/injection, schedule: Q04DX003 (ip), vehicle: saline 96 % of control

CCCC[Si](Cl)(CCCC)CCCC
inactive: [4] 90 % of control | dose: 100.0 mg/kg/injection, schedule: Q01DX001 (ip), vehicle: saline 95 % of control | dose: 100.0 mg/kg/injection, schedule: Q01DX009 (ip), vehicle: saline 92 % of control | dose: 200.0 mg/kg/injection, schedule: Q01DX001 (ip), vehicle: saline 108 % of control | dose: 200.0 mg/kg/injection, schedule: Q01DX009 (ip), vehicle: saline 90 % of control | dose: 400.0 mg/kg/injection, schedule: Q01DX001 (ip), vehicle: saline 90 % of control

Nc1c(Cl)cc2c(c1Br)Cc1ccccc1-2
inactive: [6] 107 % of control | [1] 107 % of control | [2] 117 % of control | [3] 107 % of control

COc1ccc(NC(=O)N2CCN(c3ccccc3)CC2)c(OC)c1
inactive: [10] 102 % of control | [11] 96 % of control | [12] 96 % of control

CCCCCCC(=C/c1ccccc1)/C=N/NC(=O)c1ccc[n+](C)c1
inactive: dose: 25.0 mg/kg/injection, schedule: Q04DX003 (ip), vehicle: saline with Tween-80 93 % of control | [13] 116 % of control | [5] 104 % of control

CCCCCCCCCC(O)CCCC (stereo not given)
inactive: dose: 25.0 mg/kg/injection, schedule: Q01DX009 (ip), vehicle: saline with Tween-80 108 % of control | [14] 97 % of control | [15] 94 % of control and 98 % of control | [5] 98 % of control | [7] 98 % of control | [16] 96 % of control

NC(=O)N1c2ccccc2C=Cc2ccccc21
inactive: dose: 12.5 mg/kg/injection, schedule: Q01DX009 (ip), vehicle: Klucel (hydroxypropylcellulose) (HPC) 93 % of control | dose: 25.0 mg/kg/injection, schedule: Q01DX009 (ip), vehicle: Klucel (hydroxypropylcellulose) (HPC) 93 % of control | dose: 50.0 mg/kg/injection, schedule: Q01DX009 (ip), vehicle: Klucel (hydroxypropylcellulose) (HPC) 96 % of control | [10] 89 % of control | [17] 103 % of control | [11] 94 % of control | [18] 110 % of control | [19] 110 % of control

CCn1c(C)[n+](CCCOS(=O)(=O)[O-])c2ccccc21
inactive: [8] 97 % of control | [9] 106 % of control

CC1CCCC/C1=N/NC(=O)c1ccccc1 (stereo not given)
inactive: [14] 95 % of control | [15] 110 % of control | [20] 108 % of control

CCCCCCCCCCCCCCCCCCNC(=O)NCc1ccncc1
inactive: [17] 94 % of control | [18] 123 % of control | [19] 87 % of control

CN(C)N=Nc1ccc(C(=O)Oc2ccc3c(c2)CCC2C3CCC3(C)C(=O)CCC23)cc1 (stereo not given)
inactive: [10] 90 % of control | [11] 92 % of control | [12] 88 % of control

Brc1cc(Br)c(I)c(Br)c1
inactive: [15] 102 % of control | [5] 96 % of control | [20] 101 % of control | [7] 108 % of control | dose: 400.0 mg/kg/injection, schedule: Q01DX009 (ip), vehicle: saline with Tween-80 101 % of control | [16] 103 % of control

CC(=O)OCC#CCOC(C)=O
inactive: [13] 100 % of control | [5] 97 % of control | [7] 97 % of control
